Data: patent US9879043B1, “Synthesis of non-natural cofactor analogs of S-adenosyl-L-methionine using methionine adenosyltransferase” (University of Kentucky Research Foundation, priority 2013, dated 2018)

Key:
Format in all cases: biochemical
[1] = target: T1, Sulfolobus solfataricus MAT (sMAT) (Saccharolobus solfataricus, UniProt Q980S9); settings: ADP in place of ATP, 65° C. for 4 hr, standard assay conditions
T1 sequence (Q980S9 1-404): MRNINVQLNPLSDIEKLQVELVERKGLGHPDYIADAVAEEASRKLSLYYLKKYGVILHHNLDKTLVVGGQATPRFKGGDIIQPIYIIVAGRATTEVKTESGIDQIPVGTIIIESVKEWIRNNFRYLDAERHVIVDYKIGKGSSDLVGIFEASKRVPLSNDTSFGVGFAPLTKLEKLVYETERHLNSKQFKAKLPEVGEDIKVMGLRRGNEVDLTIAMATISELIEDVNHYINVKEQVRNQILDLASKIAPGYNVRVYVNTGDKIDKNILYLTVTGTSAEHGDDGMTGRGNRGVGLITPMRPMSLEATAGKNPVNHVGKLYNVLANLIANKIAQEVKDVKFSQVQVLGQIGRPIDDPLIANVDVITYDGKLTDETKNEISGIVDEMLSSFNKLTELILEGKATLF

[2] = target: human MAT II catalytic alpha and regulatory beta subunit (hMAT2) (Homo sapiens, UniProt P31153); assay: MAT assay, turnover of S/Se-Met analogs to S(Se)AM analogs (RP-HPLC end point); settings: 2 mM Met analog, 1 mM ATP, 5 μM MAT, pH 8, 4 h, 37° C.; average of two assays
Procedure: (§1) Standard uniform assay conditions (2 mM Met analog, 1 mM ATP, 5 μM MAT, 25 mM Tris, 5 mM MgCl2, 50 mM KCl, pH 8, 4 h) were adopted to facilitate this broad assessment. For the thermophilic counterpart (mMAT), reactions were conducted at 65° C., while all other reactions were incubated at 37° C. Production of SAM analogs was determined by an RP-HPLC end point assay to afford complete analysis of the desired SAM analog and/or any corresponding degradation products known to directly derive from the desired SAM analog intermediate.
(§2) To monitor MAT reactions, analytical RP HPLC employed a Luna C18 column (5 μm, 4.6 mm×250 mm; Phenomenex, Torrance, Calif., USA) [gradient of 10% B to 40% B over 15 min, 40% B to 75% B over 5 min (A=10 mM NaH2PO4, 5 mM octane sulfonic acid, pH was adjusted to 3.5 using phosphoric acid; B=acetonitrile) flow rate=1 mL min^−1; A254].
(§3) The sMAT and mMAT reactions were conducted at 65° C. while hMATs and eMAT were incubated at 37° C. Reactions were quenched by adding an equal volume of methanol followed by centrifugation (10,000×g for 15 min) to remove the precipitated protein and product formation for each reaction was subsequently analyzed by RP-HPLC using Method D (FIG. 15, first column). For each reaction, percent yield was based upon the integration of species at 254 nm and calculated by dividing the integrated area of product and/or decomposed product by the sum of integrated area of product and/or decomposed product and the remaining substrate. The assays were repeated twice under identical conditions, and Table 2 (and FIG. 5) represents an average value of two assays. The inclusion of adenine and 5′-R-thio-5′-adenosine in these calculations is based upon the established SAM and ATP chemical decomposition pathways which indicate adenine and 5′-R-thio-5′-adenosine to only derive from SAM (not ATP). All putative products were subsequently confirmed by high resolution electrospray ionization (ESI) mass spectra with positive (+) and/or negative (−) mode.

[3] = target: human MAT I catalytic subunit alpha (hMAT1A) (Homo sapiens, UniProt Q00266); assay: as above; settings: 2 mM Met analog, 1 mM ATP, 5 μM MAT, pH 8, 4 h, 37° C.; average of two assays
Procedure: as §1, §2, §3

[4] = target: human MAT II catalytic alpha subunit alone (hMAT2A) (Homo sapiens, UniProt P31153); assay: as above; settings: 2 mM Met analog, 1 mM ATP, 5 μM MAT, pH 8, 4 h, 37° C.; average of two assays
Procedure: as §1, §2, §3

[5] = target: Escherichia coli MAT (eMAT) (Escherichia coli, UniProt P0A817); assay: as above; settings: 2 mM Met analog, 1 mM ATP, 5 μM MAT, pH 8, 4 h, 37° C.; average of two assays
Procedure: as §1, with “intermediate. Putative SAM analog and SAM-derived degradative product formation was subsequently confirmed via high-resolution mass spectrometry (HRMS) analysis for all positive reactions (see Table 2).” for “intermediate.”
as §2
as §3, with “In vitro MAT reactions were conducted in a volume of 50 μl with 2 mM S/Se-alkylated analog (compounds 2-30), 1 mM ATP and 5 μM purified MAT in 25 mM Tris buffer pH 8.0, 5 mM MgCl2, 50 mM KCl for 4 h. The sMAT” for “The sMAT”

[6] = target: T1, Sulfolobus solfataricus MAT (sMAT); settings: 2 mM analog, 1 mM ATP, 5 μM sMAT, pH 8.0, 4 h at 65° C.; average of two assays
Procedure: In-vitro sMAT assay: In vitro sMAT reactions were conducted in a volume of 50 μl with 2 mM S/Se-alkylated analog, 1 mM ATP and 5 μM purified sMAT in 25 mM Tris buffer pH 8.0, 5 mM MgCl2, 50 mM KCl for 4 h at 65° C. Reactions were quenched by adding an equal volume of methanol followed by centrifugation (10,000×g for 15 min) to remove the precipitated protein and product formation for each reaction was subsequently analyzed by reverse phase HPLC (RP-HPLC) using method described below. For each reaction, percent yield was based upon the integration of species at 254 nm and calculated by dividing the integrated area of product and/or decomposed product by the sum of integrated area of product and/or decomposed product and the remaining substrate. The assays were repeated twice under identical conditions, and Table 4 (and FIG. 17) represents an average value of two assays. The inclusion of adenine and 5′-R-thio-5′-adenosine in these calculations is based upon the established SAM and ATP chemical decomposition pathways which indicate adenine and 5′-R-thio-5′-adenosine to only derive from SAM (not ATP). All putative products were subsequently confirmed by high resolution electrospray ionization (ESI) mass spectra with positive (+) and/or negative (−) mode.
RP-HPLC method: Reactions were quenched by the addition of equal volume of methanol followed by centrifugation at 10,000 g for 15 min to remove precipitated protein before applying on an analytical Varian ProStar HPLC [Luna C18 column, 5 μm, 4.6 mm×250 mm; Phenomenex, Torrance, Calif., USA; gradient of 10% B to 40% B over 15 min, 40% B to 75% B over 5 min (A=10 mM NaH2PO4, 5 mM octane sulfonic acid, pH was adjusted to 3.5 using phosphoric acid; B=acetonitrile) flow rate=1 mL min^−1; A254].

[7] = target: T2, Methanocaldococcus jannaschii MAT (mMAT) (Methanocaldococcus jannaschii, UniProt Q58605); settings: 2 mM Met analog, 1 mM ATP, 5 μM MAT, pH 8, 4 h, 65° C.; average of two assays
T2 sequence (Q58605 1-406): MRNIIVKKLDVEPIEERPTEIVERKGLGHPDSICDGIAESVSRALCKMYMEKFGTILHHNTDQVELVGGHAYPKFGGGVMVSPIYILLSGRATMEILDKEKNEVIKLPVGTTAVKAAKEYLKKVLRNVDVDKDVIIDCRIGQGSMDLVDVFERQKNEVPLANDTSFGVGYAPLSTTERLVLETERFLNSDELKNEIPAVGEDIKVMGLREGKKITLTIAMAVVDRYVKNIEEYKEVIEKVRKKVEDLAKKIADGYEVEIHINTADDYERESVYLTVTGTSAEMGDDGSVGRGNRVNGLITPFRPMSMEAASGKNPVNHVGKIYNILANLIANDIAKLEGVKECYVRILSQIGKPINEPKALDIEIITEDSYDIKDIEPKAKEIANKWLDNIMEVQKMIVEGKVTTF
Procedure: as §1, §2, §3

SMILES | product formation from ADP and methionine [1] | Percentage Turn-over hMAT2 [2] [%] | Percentage Turn-over hMAT1A [3] [%] | Percentage Turn-over hMAT2A [4] [%] | Percentage Turn-over eMAT [5] [%] | Percentage Turn-Over (sMAT) [6] [%] | Percentage Turn-over mMAT [7] [%]
Nc1ncnc2c1ncn2[C@@H]1O[C@H](COP(=O)(O)OP(=O)(O)O)[C@@H](O)[C@H]1O [ADP] | no detectable product |  |  |  |  |  | 
CC(C)CCSCC[C@H](N)C(=O)O [compound 18, (2S)-2-amino-4-[(3-methylbutyl)sulfanyl]butanoic acid] |  | 0 | 0 | 0 | 0 | 36 | 1
CC(C)=CCSCC[C@H](N)C(=O)O [compound 19, (2S)-2-amino-4-[(3-methylbut-2-en-1-yl)sulfanyl]butanoic acid] |  | 6 | 0 | 4 | 3 | 12 | 13
[N-]=[N+]=NCCCSCC[C@H](N)C(=O)O [compound 21, (2S)-2-amino-4-[(3-azidopropyl)sulfanyl]butanoic acid] |  | 46 | 0 | 19 | 0 | 60 | 31
[N-]=[N+]=NC/C=C/CSCC[C@H](N)C(=O)O [compound 23, (2S)-2-amino-4-{[(2E)-4-azidobut-2-en-1-yl]sulfanyl}butanoic acid] |  | 12 | 2 | 5 | 0 | 28 | 32
